≈ marks a conversion by molar mass, not a printed value. Read-outs that look alike come from different tables or passages of the source.
Columns and labels:
[1] = system: Chlamydia trachomatis serovar L2; experiment: Development and morphology of inclusions in infected HeLa cells (microscopy); assay type: cell-based
Protocol: HeLa cells were infected with Chlamydia trachomatis serovar L2 and treated with IFN-γ (100 ng/ml), penicillin G (100 U/ml) or gentamicin ([…]). At various times after infection (hours post-infection (hpi)), the cells were fixed and stained with an antibody against Chlamydia sp. (green in the original figure) and with Hoechst (blue in the original figure). The infected HeLa cells treated with penicillin G have abnormal bodies that grow and that are phenotypically quite different from those formed during treatment with IFN-γ. The bodies formed with penicillin G are appreciably different from “classic” persistent bodies. To examine the effects of penicillin G on cell infection with Chlamydia, the host cells were cultivated up to 70% confluence without antibiotics, and then were infected with C. trachomatis strain […]. muridarum at 1 IFU. The infections were carried out at 37° C. for 90 minutes with centrifugation, followed by a washing of extracellular bacteria. At 3 hpi, after the washings, the culture medium was replaced with medium containing either 25 μg/ml gentamicin or 1-100 IU/ml penicillin G. At regular intervals after treatment with penicillin G, the cultures were either fixed in 4% neutral buffered PFA for 30 minutes to be prepared for confocal microscopy, or collected to determine the infectivity of the progeny bacteria, according to the previously described method (Verbeke, P. et al. PLoS Pathog 2:e45, 2006). HeLa cells cultured in monolayers on slides were infected with serovar L2 with an IFU of 1, as described above (Verbeke, P. et al. PLoS Pathog 2:e45, 2006). Three hours after the infection, the medium was removed and replaced with culture medium containing 500 IU/ml (final concentration) recombinant human IFN-γ.

[2] = system: HeLa cells infected with Chlamydia trachomatis; experiment: Sensitivity to apoptosis of infected cells (staurosporine); assay type: cell-based
Protocol: A: HeLa cells were infected with Chlamydia trachomatis and treated or not treated with penicillin G at 3 hpi. At 21 hpi, staurosporine was added to the culture medium. The cells were fixed at 48 hpi and stained with an antibody against Chlamydia sp. (green in the original figure) and Hoechst (blue in the original figure).
B: Normal or apoptotic nuclei associated with inclusions were counted and the percentage of infected cells in apoptosis was calculated.
HeLa cells were infected in the absence (white bar) or presence of penicillin G (100 U/ml) added at […] (light gray bar) or at 29 hpi (dark gray bar). Staurosporine was added at 31 hpi. The cells were fixed and observed as described below. The apoptotic or normal nuclei associated with inclusions were counted, and the percentages of apoptotic infected cells were determined. In 2 hours, treatment with penicillin G induces a loss of control by Chlamydia trachomatis over host cell apoptosis.
The effect of treatment with penicillin G on the anti-apoptotic activity of Chlamydia was determined. HeLa cells cultured in monolayers on slides were infected with serovar L2 and treated with penicillin G at 3 hpi or 29 hpi. At 25 hpi or 32 hpi, respectively, the cells were incubated with 1 μM staurosporine, fixed at 40 hpi or 48 hpi and prepared for epifluorescence microscopy. The percentages of infected cells containing apoptotic nuclei were calculated.

[3] = system: persistent forms of Chlamydia; experiment: Penicillin G on persistent infection induced by IFN-γ; assay type: cell-based, Chlamydia trachomatis
Protocol: HeLa cells cultured in monolayers on slides were infected with serovar L2 with an IFU of 1, as described above (Verbeke, P. et al. PLoS Pathog 2:e45, 2006). Three hours after the infection, the medium was removed and replaced with culture medium containing 500 IU/ml (final concentration) recombinant human IFN-γ. The infected cells were incubated for an additional 100 hours in the presence of IFN-γ before being prepared for confocal microscopy as described below.
HeLa cells cultured in monolayers on slides were infected with Chlamydia trachomatis serovar L2 and treated with penicillin G, as described above. Twenty hours after infection, the culture was washed and the medium replaced with medium free of penicillin G. Between 48 and 100 hpi, the cells and the culture medium were collected at various intervals and a titration test was performed according to the method of the prior art (Scidmore, M. A. Curr Protoc Microbiol Chapter 11: Unit 11A 11, 2005). To determine whether treatment with penicillin G could affect bacterial persistence, HeLa cells infected with L2 and treated with IFN-γ and penicillin G (500 IU/ml) from 48 hpi (i.e. 24 hours after treatment with IFN-γ) to 72 hpi (i.e. 48 hours after treatment with IFN-γ). The slides were then fixed and observed using an epifluorescence microscope (Leica D M, Leica, Mannheim, Germany) equipped with two sets of detection filters (Hoechst 360/40 nmBP-425 nmLP; FITC 480/40 nmBP-527/30 nmBP) and connected to a CCD camera CCC.
The effects of penicillin G were tested on persistent infections. Cells were infected and then treated with IFN-γat 3 hpi. Once the appearance of persistent inclusions was observed under the microscope, penicillin G was added to the infected cells cultured in the presence of IFN-γ.

[4] = system: Chlamydia trachomatis serovar L2; experiment: Minimum bactericidal concentration (titration of infectious ability of bacteria from treated infected cells); assay type: cell-based
Protocol: It was first sought to verify whether other molecules of the β-lactam family could induce in vitro the same abnormal and noninfectious forms of Chlamydia trachomatis as that produced in the presence of penicillin G. Titration experiments were performed on the infectious ability of bacteria from infected cells treated with different β-lactams. Cytotoxicity and minimum bactericidal concentration (MBC) were determined for each of these molecules. It was also verified whether all of these β-lactams have bactericidal action on persistent forms of Chlamydia trachomatis produced in vitro under the effect of IFN-γ.

In the case of `CC1(C)S[C@@H]2[C@H](NC(=O)Cc3ccccc3)C(=O)N2[C@H]1C(=O)O` [Penicillin G, benzylpenicillin], the “growth of the bacterial inclusions” value ([1]; infected HeLa cells, videomicroscopy / culture for 4 days) is reported as “grow as quickly as those of cells treated with gentamicin”, the “time at which infected treated cells were lysed” value ([1]; penicillin G) is reported as 120 hours post-infection (hpi) and the “appearance of abnormally dilated structures depending on time of addition” value ([1]; penicillin G added at various times after infection) is reported as “only when penicillin G is added in the first phase of the bacterial cycle (before 24 hpi)”. The “speed of loss of control over host cell apoptosis” value ([2]; penicillin G 100 U/ml at 29 hpi, staurosporine at 31 hpi) was at most 2 h, the apoptotic cells ([2]; penicillin G at 2 hpi or 29 hpi, staurosporine at 31 hpi, observed 8 hours later) was “Roughly 38%” and the “infected cells showing signs of apoptosis” value ([2]; penicillin G, 4 μM staurosporine at 21 hpi, read at 48 hpi) was 70.39%. For the same molecule, the “inclusion growth of persistent inclusions after addition of penicillin G” value ([3]; cells kept in IFN-γ) was “Rapid reinitiation of inclusion growth”, the “infectivity of bacteria released on lysis” value ([3]; persistent infection) was “noninfectious” and the “time of cell lysis after start of treatment” value ([3]; persistent infection, IFN-γ present) was 70 h. For the same molecule, the “cathepsin D in bacterial forms of persistent infection” value ([3]; twenty-four hours after addition of penicillin G) was “most of the abnormal bacterial forms contained cathepsin D”, the MBC ([4]; minimum bactericidal concentration, read-out: MBC) was 0.3 µM (≈ 0.1 µg/mL) and the MBC ([4]; second line of the MBC cell, read-out: MBC, bound in parentheses below the value) was over 0.1 µM.
